Target: T1, human glucagon receptor (Homo sapiens, UniProt P47871)
T1 construct: made in house; host or cells: FreeStyle CHO cells, transient transfection with pMSRαneo/hGCGR; membrane fraction (35,000 rpm pellet)
Assay: Glucagon binding inhibitory activity ([125I]-glucagon binding to glucagon receptor membrane protein)
Conditions: test compound 10 μM, 0.4% DMSO = 0%, non-labeled glucagon 1 μM = 100%; for inhibition at 10 µM: read-out: inhibitory rate (%) at 10 μM
Procedure, shortened: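 Receptor source was a membrane fraction of transiently transfected CHO cells bearing human receptor; 90 min room-temperature binding, filtration harvest, scintillation counting.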

T1 sequence (P47871 26-477): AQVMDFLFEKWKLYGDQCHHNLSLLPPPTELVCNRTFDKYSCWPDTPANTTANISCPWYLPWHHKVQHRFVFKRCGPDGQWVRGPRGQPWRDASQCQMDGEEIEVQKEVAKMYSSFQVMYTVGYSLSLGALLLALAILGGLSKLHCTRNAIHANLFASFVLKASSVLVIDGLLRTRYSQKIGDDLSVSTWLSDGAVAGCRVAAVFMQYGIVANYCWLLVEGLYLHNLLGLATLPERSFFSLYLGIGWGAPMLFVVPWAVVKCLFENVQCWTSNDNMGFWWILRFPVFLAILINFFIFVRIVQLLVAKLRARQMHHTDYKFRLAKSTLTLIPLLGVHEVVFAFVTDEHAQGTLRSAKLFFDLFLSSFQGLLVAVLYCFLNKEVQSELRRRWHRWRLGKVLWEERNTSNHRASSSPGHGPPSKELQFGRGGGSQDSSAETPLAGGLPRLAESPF

inhibitory rate (%) at 10 μM [%] | inhibition at 10 µM [%] | Compound
79 | – | Cc1c(C(Nc2ccc(C(=O)N(C)CCC(=O)O)cc2)C2CCCC2)sc2ccccc12 (stereo not drawn) [Example A65, 3-{[(4-{[cyclopentyl(3-methyl-1-benzothiophen-2-yl)methyl]amino}phenyl)carbonyl](methyl)amino}propanoic acid]
– | 82 | Cc1c(C(Nc2ccc(C(=O)N(C)CCC(=O)O)cc2)C2CCCC2)oc2ccc(F)cc12 (stereo not drawn) [Example A68, 3-{[(4-{[cyclopentyl(5-fluoro-3-methyl-1-benzofuran-2-yl)methyl]amino}phenyl)carbonyl](methyl)amino}propanoic acid]
89 | – | Cc1c(C(Nc2ccc(C(=O)N(C)CCC(=O)O)cc2)C2CCCC2)oc2ccc(F)cc12 (stereo not drawn) [Example A69]
– | 79 | CCC(CC)C(Nc1ccc(C(=O)N(C)CCC(=O)O)cc1)c1oc2ccc(F)cc2c1C (stereo not drawn) [Example A72, 3-{[(4-{[2-ethyl-1-(5-fluoro-3-methyl-1-benzofuran-2-yl)butyl]amino}phenyl)carbonyl](methyl)amino}propanoic acid]
– | 73 | COCCOc1ccc2oc(C(Nc3ccc(C(=O)N(C)CCC(=O)O)cc3)C3CCCCC3)c(C)c2c1 (stereo not drawn) [Example A79, 3-[{[4-({cyclohexyl[5-(2-methoxyethoxy)-3-methyl-1-benzofuran-2-yl]methyl}amino)phenyl]carbonyl}(methyl)amino]propanoic acid]
92 | – | COCCOc1ccc2oc(C(Nc3ccc(C(=O)N(C)CCC(=O)O)cc3)C3CCCCC3)c(C)c2c1 (stereo not drawn) [Example A80, 3-[{[4-({cyclohexyl[5-(2-methoxyethoxy)-3-methyl-1-benzofuran-2-yl]methyl}amino)phenyl]carbonyl}(methyl)amino]propanoic acid]
– | 89 | Cc1c(C(Nc2ccc(C(=O)N(C)CCC(=O)O)cc2)C2CCCCC2)oc2ccc(OC3CCOCC3)cc12 (stereo not drawn) [Example A82, 3-[{[4-({cyclohexyl[3-methyl-5-(tetrahydro-2H-pyran-4-yloxy)-1-benzofuran-2-yl]methyl}amino)phenyl]carbonyl}(methyl)amino]propanoic acid]
– | 82 | Cc1c(C(Nc2ccc(C(=O)N(C)CCC(=O)O)cc2)C(C)C)oc2ccc(OCc3ccccc3)cc12 (stereo not drawn) [Example A85, 3-[{[4-({1-[5-(benzyloxy)-3-methyl-1-benzofuran-2-yl]-2-methylpropyl}amino)phenyl]carbonyl}(methyl)amino]propanoic acid]
89 | – | Cc1c(C(Nc2ccc(C(=O)N(C)CCC(=O)O)cc2)C(C)C)oc2ccc(OCc3ccccc3)cc12 (stereo not drawn) [Example A86, 3-[{[4-({1-[5-(benzyloxy)-3-methyl-1-benzofuran-2-yl]-2-methylpropyl}amino)phenyl]carbonyl}(methyl)amino]propanoic acid]
– | 75 | Cc1c(C(Nc2ccc(C(=O)NCCC(=O)O)cc2)C2CCCCC2)oc2ccc(Cl)cc12 (stereo not drawn) [Example A88, 3-{[(4-{[(5-chloro-3-methyl-1-benzofuran-2-yl)(cyclohexyl)methyl]amino}phenyl)carbonyl]amino}propanoic acid]
– | 80 | Cc1c(C(Nc2ccc(C(=O)N(C)CCC(=O)O)cc2)C2CCCCC2)oc2ccc(Cl)cc12 (stereo not drawn) [Example A89]
– | 77 | Cc1ccc2oc(C(Nc3ccc(C(=O)NCCC(=O)O)cc3)C3CCCCC3)c(C)c2c1 (stereo not drawn) [Example A90, 3-{[(4-{[cyclohexyl(3,5-dimethyl-1-benzofuran-2-yl)methyl]amino}phenyl)carbonyl]amino}propanoic acid]
– | 79 | Cc1ccc2oc(C(Nc3ccc(C(=O)N(C)CCC(=O)O)cc3)C3CCCCC3)c(C)c2c1 (stereo not drawn) [Example A91, 3-{[(4-{[cyclohexyl(3,5-dimethyl-1-benzofuran-2-yl)methyl]amino}phenyl)carbonyl](methyl)amino}propanoic acid]
– | 76 | COc1ccc2oc(C(CC(C)C)Nc3ccc(C(=O)NCCC(=O)O)cc3)c(C)c2c1 (stereo not drawn) [Example A92, 3-{[(4-{[1-(5-methoxy-3-methyl-1-benzofuran-2-yl)-3-methylbutyl]amino}phenyl)carbonyl]amino}propanoic acid]
– | 70 | COc1ccc2oc(C(CC(C)C)Nc3ccc(C(=O)N(C)CCC(=O)O)cc3)c(C)c2c1 (stereo not drawn) [Example A93, 3-{[(4-{[1-(5-methoxy-3-methyl-1-benzofuran-2-yl)-3-methylbutyl]amino}phenyl)carbonyl](methyl)amino}propanoic acid]
– | 57 | Cc1c(C(COc2ccccc2)Nc2ccc(C(=O)NCCC(=O)O)cc2)oc2ccccc12 (stereo not drawn) [Example A94, 3-{[(4-{[1-(3-methyl-1-benzofuran-2-yl)-2-phenoxyethyl]amino}phenyl)carbonyl]amino}propanoic acid]
– | 76 | Cc1c(C(Nc2ccc(C(=O)NCCC(=O)O)cc2)C2CCCCC2)oc2cc(F)ccc12 (stereo not drawn) [Example A96, 3-{[(4-{[cyclohexyl(6-fluoro-3-methyl-1-benzofuran-2-yl)methyl]amino}phenyl)carbonyl]amino}propanoic acid]

inhibitory rate (%) at 10 μM [%] | inhibition at 10 µM [%] | Compound
– | 76 | Cc1c(C(Nc2ccc(C(=O)N(C)CCC(=O)O)cc2)C2CCCCC2)oc2cc(F)ccc12 (stereo not drawn) [Example A97]
– | 78 | Cc1c(C(Nc2ccc(C(=O)NCCC(=O)O)cc2)C2CCCCC2)oc2ccc(C#N)cc12 (stereo not drawn) [Example A98, 3-{[(4-{[(5-cyano-3-methyl-1-benzofuran-2-yl)(cyclohexyl)methyl]amino}phenyl)carbonyl]amino}propanoic acid]
– | 80 | Cc1c(C(Nc2ccc(C(=O)N(C)CCC(=O)O)cc2)C2CCCCC2)oc2ccc(C#N)cc12 (stereo not drawn) [Example A99, 3-{[(4-{[(5-cyano-3-methyl-1-benzofuran-2-yl)(cyclohexyl)methyl]amino}phenyl)carbonyl](methyl)amino}-propanoic acid]
– | 78 | Cc1c(C(CC(C)C)Nc2ccc(C(=O)NCCC(=O)O)cc2)oc2ccc(Cl)cc12 (stereo not drawn) [Example A100, 3-{[(4-{[1-(5-chloro-3-methyl-1-benzofuran-2-yl)-3-methylbutyl]amino}phenyl)carbonyl]amino}propanoic acid]
– | 76 | Cc1c(C(CC(C)C)Nc2ccc(C(=O)N(C)CCC(=O)O)cc2)oc2ccc(Cl)cc12 (stereo not drawn) [Example A101, 3-{[(4-{[1-(5-chloro-3-methyl-1-benzofuran-2-yl)-3-methylbutyl]amino}phenyl)carbonyl](methyl)amino}propanoic acid]
– | 68 | COc1ccc2oc(C(Nc3ccc(C(=O)NCCC(=O)O)cc3)C3CCCCC3)c(Br)c2c1 (stereo not drawn) [Example A102, 3-{[(4-{[(3-bromo-5-methoxy-1-benzofuran-2-yl)(cyclohexyl)methyl]amino}phenyl)carbonyl]amino}propanoic acid]
– | 66 | COc1ccc2oc(C(Nc3ccc(C(=O)N(C)CCC(=O)O)cc3)C3CCCCC3)c(Br)c2c1 (stereo not drawn) [Example A103, 3-{[(4-{[(3-bromo-5-methoxy-1-benzofuran-2-yl)(cyclohexyl)methyl]amino}phenyl)carbonyl](methyl)amino}-propanoic acid]
– | 68 | CCC(CC)C(Nc1ccc(C(=O)NCCC(=O)O)cc1)c1oc2ccc(OC)cc2c1C (stereo not drawn) [Example A104, 3-{[(4-{[2-ethyl-1-(5-methoxy-3-methyl-1-benzofuran-2-yl)butyl]amino}phenyl)carbonyl]amino}propanoic acid]
– | 67 | CCC(CC)C(Nc1ccc(C(=O)N(C)CCC(=O)O)cc1)c1oc2ccc(OC)cc2c1C (stereo not drawn) [Example A105, 3-{[(4-{[2-ethyl-1-(5-methoxy-3-methyl-1-benzofuran-2-yl)butyl]amino}phenyl)carbonyl](methyl)amino}propanoic acid]
– | 69 | CCCCCCC(Nc1ccc(C(=O)NCCC(=O)O)cc1)c1cc2cc(Cl)ccc2n1-c1cccc(C(F)(F)F)c1 (stereo not drawn) [Example A106, 3-[({4-[(1-{5-chloro-1-[3-(trifluoromethyl)phenyl]-1H-indol-2-yl}heptyl)amino]phenyl}carbonyl)amino]propanoic acid]
– | 74 | CCCCCCC(Nc1ccc(C(=O)N(C)CCC(=O)O)cc1)c1cc2cc(Cl)ccc2n1-c1cccc(C(F)(F)F)c1 (stereo not drawn) [Example A107, 3-[({4-[(1-{5-chloro-1-[3-(trifluoromethyl)phenyl]-1H-indol-2-yl}heptyl)amino]phenyl}carbonyl)(methyl)amino]propanoic acid]
– | 58 | COc1ccc2oc(C(Nc3ccc(C(=O)NCCC(=O)O)cc3)C3CCCCC3)c(C#N)c2c1 (stereo not drawn) [Example A108, 3-{[(4-{[(3-cyano-5-methoxy-1-benzofuran-2-yl)(cyclohexyl)methyl]amino}phenyl)carbonyl]amino}propanoic acid]
– | 58 | COc1ccc2oc(C(Nc3ccc(C(=O)N(C)CCC(=O)O)cc3)C3CCCCC3)c(C#N)c2c1 (stereo not drawn) [Example A109, 3-{[(4-{[(3-cyano-5-methoxy-1-benzofuran-2-yl)(cyclohexyl)methyl]amino}phenyl)carbonyl](methyl)amino}-propanoic acid]
– | 70 | Cc1c(C(Nc2ccc(C(=O)N(C)CCC(=O)O)cc2)C2CCCCC2)oc2ccc(NS(C)(=O)=O)cc12 (stereo not drawn) [Example A111, 3-[({4-[(cyclohexyl{3-methyl-5-[(methylsulfonyl)amino]-1-benzofuran-2-yl}methyl)amino]phenyl}carbonyl)(methyl)amino]propanoic acid]
– | 85 | Cc1c(C(Nc2ccc(C(=O)NCCC(=O)O)cc2)C2CCCCC2)oc2cccnc12 (stereo not drawn) [Example A112, 3-{[(4-{[cyclohexyl(3-methylfuro[3,2-b]pyridin-2-yl)methyl]amino}phenyl)carbonyl]amino}propanoic acid]
– | 68 | Cc1c(C(Nc2ccc(C(=O)N(C)CCC(=O)O)cc2)C2CCCCC2)oc2cccnc12 (stereo not drawn) [Example A113, 3-{[(4-{[cyclohexyl(3-methylfuro[3,2-b]pyridin-2-yl)methyl]amino}phenyl)carbonyl](methyl)amino}propanoic acid]
